Test results: US8536202B2, “Triazole-substituted anthranilamides as pesticides” (Bayer Cropscience AG, priority 2010, dated 2013)
Read-outs that look alike come from different tables or passages of the source.

Columns and labels:
[1] = test system: larvae of the mustard beetle (Phaedon cochleariae); experiment: Phaedon test (PHAECO spray treatment); format: in vivo; conditions: 168 h, read-out: activity in %
Outline: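 Mortality of mustard beetle larvae, expressed as percent killed (100% all, 0% none), assessed 7 days after spraying. Spray liquor made from compound in acetone plus dimethylformamide with alkylaryl polyglycol ether, diluted in emulsifier-containing water to the desired concentration.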

[2] = test system: caterpillars of the armyworm (Spodoptera frugiperda); experiment: Spodoptera frugiperda test (SPODFR spray treatment); format: in vivo; conditions: 168 h, read-out: activity in %
Outline: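 Percent caterpillar mortality read 7 days after infestation (0% none killed, 100% all killed). Treatment was a spray of the acetone/DMF/emulsifier formulation, water-diluted to test concentration, onto Zea mays leaf discs, allowed to dry before larvae were added.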

[3] = log P determination by HPLC on reversed-phase columns (EEC Directive 79/831 Annex V.A8); format: physicochemical; conditions: pH 2.7
Outline: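 Calibration used unbranched alkan-2-ones of 3 to 16 carbons with known log P, values interpolated linearly from retention times between neighbouring standards. Acidic-range LC-MS run at pH 2.7, eluents aqueous and acetonitrile formic acid 0.1%, linear gradient 10% to 95% acetonitrile.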

[4] = test system: green peach aphid (Myzus persicae); experiment: Myzus test (MYZUPE spray treatment), Use Example 4; format: in vivo; conditions: 144 h, read-out: activity in %
Outline: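 Compound was formulated in acetone/dimethylformamide with alkylaryl polyglycol ether emulsifier and diluted in emulsifier-containing water. It was sprayed onto Chinese cabbage leaf discs infested with all stages of Myzus persicae. Mortality (%) was scored after 6 days, where 100% means all aphids killed.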

[5] = HPLC on reversed-phase columns (C 18), EEC Directive 79/831 Annex V.A8, read-out: logP

In the case of `Cc1cc(Cl)cc(C(=O)NCC2CC2)c1NC(=O)c1cc(Cn2cc(C(F)(F)C(F)(F)F)nn2)nn1-c1ncccc1Cl` [Example 305], the pest or weed control at 100 g/ha ([1]; 100 g/ha, after 7 days) is reported as 100%, the pest or weed control at 100 g/ha ([2]; 100 g/ha, after 7 days) is reported as 100% and the chromatographic logP [3] is reported as 3.55. The pest or weed control at 100 g/ha ([4]; 100 g/ha, after 6 days) was 100%.
`Cc1cc(Cl)cc(C(N)=O)c1NC(=O)c1cc(Cn2cc(C(F)(F)C(F)(F)F)nn2)nn1-c1ncccc1Cl` [Example 306] gave a pest or weed control at 100 g/ha ([1]; 100 g/ha, after 7 days) of 100%, a pest or weed control at 100 g/ha ([2]; 100 g/ha, after 7 days) of 100% and a chromatographic logP [3] of 2.78. The pest or weed control at 100 g/ha ([4]; 100 g/ha, after 6 days) was 100%.
Compound `CSC[C@H](C)NC(=O)c1cc(Cl)cc(C)c1NC(=O)c1cc(Cn2cc(C(F)(F)C(F)(F)F)nn2)nn1-c1ncccc1Cl` [Example 307] has a pest or weed control at 100 g/ha ([1]; 100 g/ha, after 7 days) of 100%, a pest or weed control at 100 g/ha ([2]; 100 g/ha, after 7 days) of 100% and a chromatographic logP [3] of 3.66. It also gave a pest or weed control at 100 g/ha ([4]; 100 g/ha, after 6 days) of 100%.
With `CNC(=O)c1cc(I)cc(C)c1NC(=O)c1cc(Cn2cc(C(F)(F)C(F)(F)F)nn2)nn1-c1ncccc1Cl` [Example 308] the pest or weed control at 100 g/ha ([1]; 100 g/ha, after 7 days) was 100%, the pest or weed control at 100 g/ha ([2]; 100 g/ha, after 7 days) was 100% and the chromatographic logP [3] was 3.23. It also gave a pest or weed control at 100 g/ha ([4]; 100 g/ha, after 6 days) of 100%.
Compound `Cc1cc(I)cc(C(=O)NC(C)C2CC2)c1NC(=O)c1cc(Cn2cc(C(F)(F)C(F)(F)F)nn2)nn1-c1ncccc1Cl` (centres unmarked) [Example 309] has a pest or weed control at 100 g/ha ([1]; 100 g/ha, after 7 days) of 100%, a pest or weed control at 100 g/ha ([2]; 100 g/ha, after 7 days) of 100% and a chromatographic logP [3] of 4.03. The pest or weed control at 100 g/ha ([4]; 100 g/ha, after 6 days) was 80%.
With `Cc1cc(I)cc(C(=O)NC(C)C)c1NC(=O)c1cc(Cn2cc(C(F)(F)C(F)(F)F)nn2)nn1-c1ncccc1Cl` [Example 312] the pest or weed control at 100 g/ha ([1]; 100 g/ha, after 7 days) was 100%, the pest or weed control at 100 g/ha ([2]; 100 g/ha, after 7 days) was 100% and the chromatographic logP [3] was 3.73. The pest or weed control at 100 g/ha ([4]; 100 g/ha, after 6 days) was 80%.
`Cc1cc(I)cc(C(=O)NC(C)(C)C)c1NC(=O)c1cc(Cn2cc(C(F)(F)C(F)(F)F)nn2)nn1-c1ncccc1Cl` [Example 313] gave a pest or weed control at 100 g/ha ([1]; 100 g/ha, after 7 days) of 100%, a pest or weed control at 100 g/ha ([2]; 100 g/ha, after 7 days) of 100% and a chromatographic logP [3] of 4.09. For the same compound, the pest or weed control at 100 g/ha ([4]; 100 g/ha, after 6 days) was 100%.
Compound `Cc1cc(I)cc(C(=O)NCC2CC2)c1NC(=O)c1cc(Cn2cc(C(F)(F)C(F)(F)F)nn2)nn1-c1ncccc1Cl` [Example 314] has a pest or weed control at 100 g/ha ([1]; 100 g/ha, after 7 days) of 100%, a pest or weed control at 100 g/ha ([2]; 100 g/ha, after 7 days) of 100% and a chromatographic logP [3] of 3.8. For the same compound, the pest or weed control at 100 g/ha ([4]; 100 g/ha, after 6 days) was 80%.
`Cc1cc(I)cc(C(N)=O)c1NC(=O)c1cc(Cn2cc(C(F)(F)C(F)(F)F)nn2)nn1-c1ncccc1Cl` [Example 315] gave a pest or weed control at 100 g/ha ([1]; 100 g/ha, after 7 days) of 100%, a pest or weed control at 100 g/ha ([2]; 100 g/ha, after 7 days) of 100% and a chromatographic logP [3] of 2.98. It also gave a pest or weed control at 100 g/ha ([4]; 100 g/ha, after 6 days) of 90%.
Work on `CSC[C@H](C)NC(=O)c1cc(I)cc(C)c1NC(=O)c1cc(Cn2cc(C(F)(F)C(F)(F)F)nn2)nn1-c1ncccc1Cl` [Example 316] yielded a pest or weed control at 100 g/ha ([1]; 100 g/ha, after 7 days) of 100%, a pest or weed control at 100 g/ha ([2]; 100 g/ha, after 7 days) of 100% and a chromatographic logP [3] of 3.91. For the same compound, the pest or weed control at 100 g/ha ([4]; 100 g/ha, after 6 days) was 100%.
Compound `CNC(=O)c1cc(C#N)cc(C)c1NC(=O)c1cc(Cn2cc(C(F)(F)C(F)(F)F)nn2)nn1-c1ncccc1Cl` [Example 317] has a pest or weed control at 100 g/ha ([1]; 100 g/ha, after 7 days) of 100%, a pest or weed control at 100 g/ha ([2]; 100 g/ha, after 7 days) of 100% and a chromatographic logP [3] of 2.68. It also gave a pest or weed control at 100 g/ha ([4]; 100 g/ha, after 6 days) of 100%.
In the case of `Cc1cc(C#N)cc(C(=O)NC2CC2)c1NC(=O)c1cc(Cn2cc(C(F)(F)C(F)(F)F)nn2)nn1-c1ncccc1Cl` [Example 318], the pest or weed control at 100 g/ha ([1]; 100 g/ha, after 7 days) is reported as 100%, the pest or weed control at 100 g/ha ([2]; 100 g/ha, after 7 days) is reported as 100% and the chromatographic logP [3] is reported as 2.89. The pest or weed control at 100 g/ha ([4]; 100 g/ha, after 6 days) was 100%.
Work on `CCNC(=O)c1cc(C#N)cc(C)c1NC(=O)c1cc(Cn2cc(C(F)(F)C(F)(F)F)nn2)nn1-c1ncccc1Cl` [Example 319] yielded a pest or weed control at 100 g/ha ([1]; 100 g/ha, after 7 days) of 100%, a pest or weed control at 100 g/ha ([2]; 100 g/ha, after 7 days) of 100% and a chromatographic logP [3] of 2.89. The pest or weed control at 100 g/ha ([4]; 100 g/ha, after 6 days) was 100%.
In the case of `Cc1cc(C#N)cc(C(=O)NC(C)C)c1NC(=O)c1cc(Cn2cc(C(F)(F)C(F)(F)F)nn2)nn1-c1ncccc1Cl` [Example 320], the pest or weed control at 100 g/ha ([1]; 100 g/ha, after 7 days) is reported as 100%, the pest or weed control at 100 g/ha ([2]; 100 g/ha, after 7 days) is reported as 100% and the chromatographic logP [3] is reported as 3.11. The pest or weed control at 100 g/ha ([4]; 100 g/ha, after 6 days) was 100%.
`CSC[C@H](C)NC(=O)c1cc(Cl)cc(C)c1NC(=O)c1cc(Cn2cc(C(F)(F)C(F)(F)C(F)(F)F)nn2)nn1-c1ncccc1Cl` [Example 324] gave a pest or weed control at 100 g/ha [1] of 100%, a pest or weed control at 100 g/ha [2] of 100% and a chromatographic logP [3, 5] of 3.99. It also gave a pest or weed control at 100 g/ha [4] of 100%.
In the case of `Cc1cc(Cl)cc(C(=O)NCC2CC2)c1NC(=O)c1cc(Cn2cc(C(F)(F)C(F)(F)C(F)(F)F)nn2)nn1-c1ncccc1Cl` [Example 325], the pest or weed control at 100 g/ha [1] is reported as 100%, the pest or weed control at 100 g/ha [2] is reported as 100% and the chromatographic logP [3, 5] is reported as 3.9. For the same compound, the pest or weed control at 100 g/ha [4] was 100%.
`Cc1cc(Cl)cc(C(=O)NC2CC2)c1NC(=O)c1cc(Cn2cc(C(F)(F)C(F)(F)C(F)(F)F)nn2)nn1-c1ncccc1Cl` [Example 326] gave a pest or weed control at 100 g/ha [1] of 100%, a pest or weed control at 100 g/ha [2] of 100% and a chromatographic logP [3, 5] of 3.57. It also gave a pest or weed control at 100 g/ha [4] of 100%.
